Measurements: ChEMBL document CHEMBL1275492, “In vitro activity of ceftobiprole against pathogens from two phase 3 clinical trials of complicated skin and skin structure infections” (2008)
Values after ≈ are worked out from the molar mass of the structure shown.

Experiments:
Type in all cases: functional
[1] = system: Bacteroides fragilis; assay: Antibacterial activity against Bacteroides fragilis obtained from complicated skin and skin structure infections by agar dilution method
[2] = system: Prevotella; assay: Antibacterial activity against Prevotella spp. obtained from complicated skin and skin structure infections by agar dilution method
[3] = system: Veillonella; assay: Antibacterial activity against Veillonella spp. obtained from complicated skin and skin structure infections by agar dilution method
[4] = system: Citrobacter braakii; assay: Antibacterial activity against Citrobacter braakii obtained from complicated skin and skin structure infections by agar dilution method
[5] = system: Enterobacter cloacae; assay: Antibacterial activity against Enterobacter cloacae obtained from complicated skin and skin structure infections by agar dilution method
[6] = system: Stenotrophomonas maltophilia; assay: Antibacterial activity against Stenotrophomonas maltophilia obtained from complicated skin and skin structure infections by agar dilution method
[7] = system: Streptococcus constellatus; assay: Antibacterial activity against Streptococcus constellatus obtained from complicated skin and skin structure infections by agar dilution method
[8] = system: Enterobacter amnigenus; assay: Antibacterial activity against Enterobacter amnigenus obtained from complicated skin and skin structure infections by agar dilution method; conditions: Lelliottia amnigena
[9] = system: Lactococcus lactis; assay: Antibacterial activity against Lactococcus lactis obtained from complicated skin and skin structure infections by agar dilution method
[10] = system: Staphylococcus lugdunensis; assay: Antibacterial activity against methicillin-resistant, oxacillin-susceptible, coagulase-negative, mecA-positive Staphylococcus lugdunensis obtained from complicated skin and skin structure infections by agar dilution method
[11] = system: Escherichia coli; assay: Antibacterial activity against Escherichia coli obtained from complicated skin and skin structure infections by agar dilution method
[12] = system: Mammaliicoccus sciuri; assay: Antibacterial activity against coagulase-negative Staphylococcus sciuri obtained from complicated skin and skin structure infections by agar dilution method
[13] = Antibacterial activity against Streptococcus sp. 'group G' obtained from complicated skin and skin structure infections by agar dilution method
[14] = system: Micrococcus; assay: Antibacterial activity against Micrococcus spp. obtained from complicated skin and skin structure infections by agar dilution method
[15] = system: Pseudomonas aeruginosa; assay: Antibacterial activity against Pseudomonas aeruginosa obtained from complicated skin and skin structure infections by agar dilution method
[16] = system: Staphylococcus cohnii; assay: Antibacterial activity against coagulase-negative Staphylococcus cohnii obtained from complicated skin and skin structure infections by agar dilution method
[17] = system: Citrobacter freundii; assay: Antibacterial activity against Citrobacter freundii obtained from complicated skin and skin structure infections by agar dilution method
[18] = system: Staphylococcus aureus; assay: Antibacterial activity against methicillin resistant Staphylococcus aureus obtained from complicated skin and skin structure infections by agar dilution method
[19] = system: Staphylococcus haemolyticus; assay: Antibacterial activity against coagulase-negative Staphylococcus haemolyticus obtained from complicated skin and skin structure infections by agar dilution method
[20] = system: Klebsiella oxytoca; assay: Antibacterial activity against Klebsiella oxytoca obtained from complicated skin and skin structure infections by agar dilution method
[21] = system: Klebsiella aerogenes; assay: Antibacterial activity against Enterobacter aerogenes obtained from complicated skin and skin structure infections by agar dilution method
[22] = system: Morganella morganii; assay: Antibacterial activity against Morganella morganii obtained from complicated skin and skin structure infections by agar dilution method
[23] = system: Salmonella; assay: Antibacterial activity against Salmonella spp. obtained from complicated skin and skin structure infections by agar dilution method
[24] = system: Staphylococcus; assay: Antibacterial activity against methicillin-susceptible, coagulase-negative Staphylococcus obtained from complicated skin and skin structure infections by agar dilution method
[25] = system: Gemella morbillorum; assay: Antibacterial activity against Gemella morbillorum obtained from complicated skin and skin structure infections […]
[26] = system: Staphylococcus intermedius; assay: Antibacterial activity against Staphylococcus intermedius obtained from complicated skin and skin structure infections by agar dilution method
[27] = system: Staphylococcus lugdunensis; assay: Antibacterial activity against coagulase-negative Staphylococcus lugdunensis obtained from complicated skin and skin structure infections by agar dilution method
[28] = system: Staphylococcus saprophyticus; assay: Antibacterial activity against coagulase-negative Staphylococcus saprophyticus obtained from complicated skin and skin structure infections by agar dilution method
[29] = system: Staphylococcus warneri; assay: Antibacterial activity against coagulase-negative Staphylococcus warneri obtained from complicated skin and skin structure infections by agar dilution method
[30] = system: Staphylococcus epidermidis; assay: Antibacterial activity against coagulase-negative Staphylococcus epidermidis obtained from complicated skin and skin structure infections by agar dilution method
[31] = system: Enterococcus faecalis; assay: Antibacterial activity against Enterococcus faecalis obtained from complicated skin and skin structure infections by agar dilution method
[32] = system: Pseudomonas fluorescens; assay: Antibacterial activity against Pseudomonas fluorescens obtained from complicated skin and skin structure infections by agar dilution method
[33] = system: Staphylococcus aureus; assay: Antibacterial activity against Staphylococcus aureus obtained from complicated skin and skin structure infections by agar dilution method
[34] = system: Proteus vulgaris; assay: Antibacterial activity against Proteus vulgaris obtained from complicated skin and skin structure infections by agar dilution method
[35] = Antibacterial activity against Streptococcus sp. 'group C' obtained from complicated skin and skin structure infections by agar dilution method
[36] = system: Streptococcus pyogenes; assay: Antibacterial activity against Streptococcus pyogenes obtained from complicated skin and skin structure infections by agar dilution method
[37] = system: Staphylococcus aureus; assay: Antibacterial activity against methicillin susceptible Staphylococcus aureus obtained from complicated skin and skin structure infections by agar dilution method
[38] = system: Providencia stuartii; assay: Antibacterial activity against Providencia stuartii obtained from complicated skin and skin structure infections by agar dilution method
[39] = system: Acinetobacter baumannii; assay: Antibacterial activity against Acinetobacter baumannii obtained from complicated skin and skin structure infections by agar dilution method
[40] = system: Proteus mirabilis; assay: Antibacterial activity against Proteus mirabilis obtained from complicated skin and skin structure infections by agar dilution method
[41] = system: Aerococcus viridans; assay: Antibacterial activity against Aerococcus viridans obtained from complicated skin and skin structure infections by agar dilution method
[42] = system: Klebsiella pneumoniae; assay: Antibacterial activity against Klebsiella pneumoniae obtained from complicated skin and skin structure infections by agar dilution method
[43] = system: Serratia marcescens; assay: Antibacterial activity against Serratia marcescens obtained from complicated skin and skin structure infections by agar dilution method
[44] = system: Staphylococcus hominis; assay: Antibacterial activity against coagulase-negative Staphylococcus hominis obtained from complicated skin and skin structure infections by agar dilution method
[45] = system: Streptococcus agalactiae; assay: Antibacterial activity against Streptococcus agalactiae obtained from complicated skin and skin structure infections by agar dilution method
[46] = system: Streptococcus mitis; assay: Antibacterial activity against Streptococcus mitis obtained from complicated skin and skin structure infections by agar dilution method
[47] = system: Bacillus; assay: Antibacterial activity against Bacillus spp. obtained from complicated skin and skin structure infections by agar dilution method
[48] = system: Gemella; assay: Antibacterial activity against Gemella spp. obtained from complicated skin and skin structure infections by agar dilution method
[49] = system: Enterococcus faecium; assay: Antibacterial activity against Enterococcus faecium obtained from complicated skin and skin structure infections by agar dilution method
[50] = system: Proteus penneri; assay: Antibacterial activity against Proteus penneri obtained from complicated skin and skin structure infections by agar dilution method
[51] = system: Staphylococcus capitis; assay: Antibacterial activity against coagulase-negative Staphylococcus capitis obtained from complicated skin and skin structure infections by agar dilution method

CO[C@@]1(NC(=O)Cc2cccs2)C(=O)N2C(C(=O)O)=C(COC(N)=O)CS[C@@H]21 [CEFOXITIN]
MIC [1]: ≤ 1 µg/mL
MIC [2]: ≤ 1 µg/mL
MIC [3]: ≤ 1 µg/mL

C[C@H]1COc2c(N3CCN(C)CC3)c(F)cc3c(=O)c(C(=O)O)cn1c23.C[C@H]1COc2c(N3CCN(C)CC3)c(F)cc3c(=O)c(C(=O)O)cn1c23.O [LEVOFLOXACIN]
MIC50 [4]: ≤ 0.06 µg/mL
MIC90 [4]: 8 µg/mL
MIC50 [5]: 0.06 µg/mL
MIC90 [5]: 4 µg/mL
MIC50 [6]: 4 µg/mL
MIC90 [6]: 8 µg/mL
MIC [7]: 0.25 µg/mL
MIC50 [7]: 0.25 µg/mL
MIC90 [7]: 1 µg/mL
MIC50 [8]: ≤ 0.06 µg/mL
MIC90 [8]: 8 µg/mL
MIC50 [9]: 0.5 µg/mL
MIC90 [9]: 4 µg/mL
MIC50 [10]: 0.25 µg/mL
MIC90 [10]: > 8 µg/mL
MIC50 [11]: 0.03 µg/mL
MIC90 [11]: 1 µg/mL
MIC50 [12]: 0.12 µg/mL
MIC90 [12]: 8 µg/mL
MIC50 [13]: 0.5 µg/mL
MIC90 [13]: 0.5 µg/mL
MIC50 [14]: 0.5 µg/mL
MIC90 [14]: 4 µg/mL
MIC50 [15]: 4 µg/mL
MIC90 [15]: 64 µg/mL
MIC50 [16]: 0.12 µg/mL
MIC90 [16]: 8 µg/mL
MIC50 [17]: ≤ 0.06 µg/mL
MIC90 [17]: 8 µg/mL
MIC50 [18]: 4 µg/mL
MIC90 [18]: 8 µg/mL
MIC50 [19]: 0.12 µg/mL
MIC90 [19]: 8 µg/mL
MIC50 [20]: ≤ 0.06 µg/mL
MIC90 [20]: 8 µg/mL
MIC50 [21]: ≤ 0.06 µg/mL
MIC90 [21]: 8 µg/mL
MIC50 [22]: 1 µg/mL
MIC90 [22]: 64 µg/mL
MIC50 [23]: ≤ 0.06 µg/mL
MIC90 [23]: 8 µg/mL
MIC50 [24]: 0.12 µg/mL
MIC90 [24]: 0.25 µg/mL
MIC50 [25]: 0.5 µg/mL
MIC90 [25]: 4 µg/mL
MIC [26]: ≤ 0.03 µg/mL
MIC50 [26]: ≤ 0.03 µg/mL
MIC90 [26]: 0.12 µg/mL
MIC50 [27]: 0.12 µg/mL
MIC90 [27]: 8 µg/mL
MIC50 [28]: 0.12 µg/mL
MIC90 [28]: 8 µg/mL
MIC50 [29]: 0.12 µg/mL
MIC90 [29]: 8 µg/mL
MIC50 [30]: 0.12 µg/mL
MIC90 [30]: 8 µg/mL
MIC50 [31]: 1 µg/mL
MIC90 [31]: 2 µg/mL
MIC50 [32]: 4 µg/mL
MIC90 [32]: 8 µg/mL
MIC50 [33]: 0.12 µg/mL
MIC90 [33]: 4 µg/mL
MIC50 [34]: ≤ 0.06 µg/mL
MIC90 [34]: 8 µg/mL
MIC50 [35]: 0.5 µg/mL
MIC90 [35]: 0.5 µg/mL
MIC50 [36]: 0.5 µg/mL
MIC90 [36]: 0.5 µg/mL
MIC50 [37]: 0.12 µg/mL
MIC90 [37]: 0.5 µg/mL
MIC50 [38]: ≤ 0.06 µg/mL
MIC90 [38]: 8 µg/mL
MIC50 [39]: 4 µg/mL
MIC90 [39]: 8 µg/mL
MIC50 [40]: ≤ 0.06 µg/mL
MIC90 [40]: > 8 µg/mL
MIC50 [41]: 0.5 µg/mL
MIC90 [41]: 4 µg/mL
MIC50 [42]: 0.06 µg/mL
MIC90 [42]: 4 µg/mL
MIC50 [43]: ≤ 0.06 µg/mL
MIC90 [43]: 8 µg/mL
MIC50 [44]: 0.12 µg/mL
MIC90 [44]: 8 µg/mL
MIC [45]: 0.5 µg/mL
MIC50 [45]: 0.5 µg/mL
MIC90 [45]: 1 µg/mL
MIC [46]: ≤ 0.03 µg/mL
MIC50 [46]: ≤ 0.03 µg/mL
MIC90 [46]: 0.12 µg/mL
MIC50 [47]: 0.5 µg/mL
MIC90 [47]: 4 µg/mL
MIC50 [48]: 0.5 µg/mL
MIC90 [48]: 4 µg/mL
MIC50 [49]: 4 µg/mL
MIC50 [50]: ≤ 0.06 µg/mL
MIC90 [50]: 8 µg/mL
MIC50 [51]: 0.12 µg/mL
MIC90 [51]: 8 µg/mL

Cc1ncc([N+](=O)[O-])n1CCO [METRONIDAZOLE]
MIC [1]: 0.5 µg/mL (≈ 2.92 µM)
MIC [2]: 0.5 µg/mL (≈ 2.92 µM)
MIC [3]: 0.5 µg/mL (≈ 2.92 µM)
